{"source": "patent US20260216180A1", "about": "“QUINOLINE DERIVATIVE COMPOUNDS OR PHARMACEUTICALLY ACCEPTABLE SALT THEREOF, PREPARATION METHOD THEREFOR AND USE THEREOF” (JIANGSU CAREPHAR PHARMACEUTICAL CO.,LTD., priority 2023, published 2026)", "tested_on": "miR-124", "assay": "Regulation of miR-124 expression in a PBMC in vitro model (qPCR)", "assay_type": "cell-based", "settings": "5 μM test compound, 24 h, human PBMC stimulated with PHA-L and IL-2; miR-191 internal reference; read-out: Relative expression of miR-124, fold change compared with DMSO-treated cells", "method": "Pharmacological Activity Test: Regulation of miR-124 Expression by the Quinoline Derivatives in a PBMC In Vitro Model\n• a. human PBMC cells • b. PHA-L • c. IL-2 • d. mirVana™ miRNA Extraction kit • e. TaqMan Advanced miRNA cDNA Synthesis Kit • f. TaqMan Fast Gene Expression Master Mix • g. TaqMan Advanced miRNA Assay (mir191) • h. TaqMan Advanced miRNA Assay (mir124)\nHuman PBMC cells were resuscitated. The cell suspension was transferred to a 75 cm^2 culture flask containing 13 mL of culture medium. The cells were cultured overnight in a 37° C., 5% CO2 incubator. The cell suspension was then collected in a conical flask, centrifuged at 1200 rpm for 5 minutes, and the supernatant was discarded. The cells were resuspended in 1 mL of fresh culture medium, and then the cell clumps were gently blown apart and inoculated into a 6-well plate at a density of 4*10^6 cells/mL. 5 μg/mL PHA-L and 10 ng/mL IL-2 were added to each well. The cells were incubated in the incubator for 48 hours. 5 μM of the test compound was added to each well of a 6-well plate, and 0.1% DMSO was added to the blank control wells, and the plate was incubated at 37° C. for 24 h. Cells were collected, Total RNA was isolated and extracted according to the procedure of the mirVana™ miRNA Extraction Kit, and cDNA was prepared according to the procedure of the TaqMan Advanced miRNA cDNA Synthesis Kit. MiR-191 was used as the internal reference gene for qPCR test.\nThat is, RNA sample→poly (A) tailing reaction→adapter reaction→reverse transcription (RT) reaction→miR-amplification reaction→qPCR test.\nThe qPCR procedure includes: 50° C. 2 min; 95° C. 20 s; 95° C. 1 s, a 60° C. 20 s, 40 cycles.\nThe relative gene expression was calculated using the following formula: ΔCt=Ct (miR-124)−Ct (miR-191)\nRelative miRNA expression=2^−ΔCt."}
{"smiles": "Fc1cc(Cl)c2nc(Nc3ccc(C4(C(F)(F)F)CC4)cc3)ccc2c1", "note": "[Compound 18, 8-chloro-6-fluoro-N-(4-(1-(trifluoromethyl)cyclopropyl)phenyl)quinolin-2-amine]", "values": [{"measurement": "fold induction at 5 µM", "result": 125}]}
